From patent EP0194571A1, “Heterocyclic disulfides, process for their preparation and pharmaceutical preparations containing them” (HOECHST AKTIENGESELLSCHAFT, priority 1985, dated 1986)

What was measured:
[1] = system: Candida albicans; assay: Therapeutic treatment of a chronic Candida albicans infection (germ counts in urine and kidneys, kidney necrosis); format: in vivo, Balb/c-Mäuse; details: Tag 30, 60 mg/kg i.p. Tag 3-10
Method: Bei der therapeutischen Behandlung einer chronischen Candida albicans Infektion wurden weibliche Balb/c-Mäuse (15/Gruppe) am Tag 0 intravenös mit Candida albicans (1 x 10^5 CFU/Maus) infiziert. Nach erfolgter Infektion wurden die Tiere an 8 aufeinanderfolgenden Tagen (Tag 3 - 10) mit jeweils 60 mg/kg der Prüfsubstanz (Verbindung nach Ausführungsbeispiel 8) intraperitoneal behandelt. Den Kontrolltieren wurde physiologische Kochsalzlösung injiziert. An den Tagen 8, 14 und 21 wurden den Tieren Urin entnommen und die Keimzahl bestimmt. Am Tag 30 wurden die Tiere getötet und die Keimzahl und die Nekrosenbildung der Nieren bestimmt. Die Tabelle 6 zeigt, daß die Prüfsubstanz bei therapeutischer Gabe deutlich alle Parameter der chronischen Candida albicans Infektion (Keimzahl in Urin und Nieren und Nekrosenbildung) reduziert und damit die Erkrankung therapeutisch beeinflußt. Während bei den Kontrolltieren sich zu einem hohen Prozentsatz Keime im Urin nachweisen lassen, wird bei den behandelten Tieren die Keimzahl signifikant erniedrigt.
Auch die Keimbesiedlung der Nieren wird durch die Therapie von 63 % auf 27 % reduziert, bei einer gleichzeitigen Verringerung der Nekrosenbildung von 87 % auf 10 %.

[2] = system: zelluläre Immunantwort (DTH-Reaktion) gegen Schafserythrozyten; assay: Delayed type hypersensitivity (DTH) reaction against sheep erythrocytes, foot swelling in mice; format: in vivo, NMRI-Mäuse; details: relative to maximal activation by compound of Beispiel 8 = 100 %; Dosis 100 mg/kg, 1 x i.p. Tag 0
[3] = system: Candida albicans; assay: Resistance against Candida albicans infection, prophylactic treatment, survival time; format: in vivo, Balb/c-Mäuse; details: 2 x 60 mg/kg/Tag intraperitoneal over 4 days, i.v. infection 24 h later with 5 x 10^5 CFU/Maus, control 9,7 Tagen
Method: Balb/c-Mäuse wurden über 4 Tage in einer Dosierung von 2 x 60 mg/kg/Tag intraperitoneal mit der Prüfsubstanz (Verbindung nach Ausführungsbeispiel 8) behandelt. 24 Stunden nach der letzten Gabe der Prüfsubstanz werden diese Tiere und die Kontrolltiere, denen physiologische Kochsalzlösung in gleichen Volumina und Zeitabständen verabreicht worden war, mit Candida albicans intravenös infiziert (5 x 10^5 CFU/Maus). Aus der Absterberate nach der Infektion lassen sich entsprechend die mittleren Überlebenszeiten berechnen. Die Tiere der Kontrollgruppe sterben zu 50 % nach 9,7 Tagen, die mit der Prüfsubstanz behandelte Gruppe zeigte eine mittlere Überlebenszeit von 16,1 Tagen. In dem gewählten Applikationsschema mit den entsprechenden Dosierungen (prophylaktische Verabreichung) induziert die Prüfsubstanz eine signifikante Erhöhung der Resistenz der Balb/c-Maus gegen Candida albicans.
Wie in Experiment 3a beschrieben, wurden Balb/c-Mäuse mit den erfindungsgemäßen Verbindungen behandelt.
Wie Tabelle 9 zeigt, steigt die mittlere Überlebenszeit der Mäuse nach C. albicans Infektion, verglichen mit einer unbehandelten Kontrollgruppe, signifikant an.

Cc1nc(SSc2nc(C)c(CC(=O)O)s2)sc1CC(=O)O [Beispiel 8, Bis-(5-Carboxymethyl-4-methyl-thiazol-2-yl)-disulfid]
Keimbesiedlung der Nieren ([1]; control 63 %): 27% | Nekrosenbildung ([1]; kidneys, control 87 %): 10% | DTH-Reaktion (SRBC) [2]: 100% | mittlere Überlebenszeit [3]: 16,1 Tagen
